Results on eleven compounds are retold here after PubChem BioAssay (NCI).

“And” between values parts separate entries of the source, which are not always exact repeats. Equal entries are not always repeated.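 1) Cells in 96-well plates. 2) Compound, 48 h, 5 concentrations. 3) Linear interpolation between surrounding doses. 4) Unreached endpoint = highest concentration. GI50 is the concentration that inhibits growth by half. Definition used: TGI = concentration required for complete inhibition of growth.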 A value given as a limit tells only on which side of the number the result lay.

Some test systems named below: MDA-MB-435; M14 melanoma; SNB-75 CNS; SW-620 colon; NCI/ADR-RES ovarian; NCI-H23 lung; DU-145 prostate; A498 renal; SNB-19 CNS; HOP-92 NSCLC.
Common to all, as to test: inhibition of tumour cell growth, NCI panel, 48 h

Regarding `Cc1ccc(NC(=O)c2cc3ccccc3cc2O)c(C)c1.Cc1ccc(NC(=O)c2cc3ccccc3cc2[O-])c(C)c1.[Ni+2]`, the GI50 in the test on MDA-MB-435 was 3.38 µM; in the test with M14 melanoma, 4.31 µM; with SNB-75 CNS, 2.78 µM; in the test on SW-620 colon, 4.24 µM; with NCI/ADR-RES ovarian, 2.45 µM; with NCI-H23 lung, 2.48 µM. The GI50 in the test on DU-145 prostate is 3.27 µM; in the test on A498 renal, 3.44 µM; with SNB-19 CNS, 3.72 µM. Also, the TGI with MDA-MB-435 turned out to be 13.1 µM; in the test on M14 melanoma it was 13.9 µM; in the test with SNB-75 CNS, 6.7 µM; in the test with SW-620 colon, 36.8 µM; in the test with NCI/ADR-RES ovarian, 8.6 µM; with NCI-H23 lung it was 10.1 µM. The TGI in the test with DU-145 prostate worked out at 13.2 µM; with A498 renal, 13.4 µM; in the test with SNB-19 CNS it was 20.2 µM.
Turning to `CC(C)c1ccc2nc3ccc(C(=O)NCCN4CCN(c5ccccc5)CC4)cn3c(=O)c2c1`, the TGI in the test on M14 melanoma, in the test on SW-620 colon, in the test with NCI/ADR-RES ovarian, in the test with NCI-H23 lung, in the test on DU-145 prostate and in the test on A498 renal was greater than 100 µM each time. In the test on SNB-19 CNS, the TGI is greater than 100 µM.
As for `CC1=CC(=O)c2ccc(C)cc2C1=O`, the TGI was 5.78 µM with MDA-MB-435; 30.8 µM in the test on M14 melanoma; 4.2 µM in the test with HOP-92 NSCLC; 30.4 µM in the test with SW-620 colon; greater than 100 µM with NCI/ADR-RES ovarian; 23.9 µM in the test with NCI-H23 lung. Further, the TGI with DU-145 prostate stood at 35.7 µM; in the test with A498 renal, 34.4 µM; in the test with SNB-19 CNS, 30 µM.
With `COc1ccc2c(c1)C(=O)c1c-2c(NCCN(C)C)nc2ccccc12`, the GI50 was 5.06 µM in the test with MDA-MB-435; 15.8 µM in the test on M14 melanoma; 0.0658 µM in the test with HOP-92 NSCLC; 3.4 µM in the test with SW-620 colon; 3.66 µM with NCI/ADR-RES ovarian; 2.95 µM in the test on DU-145 prostate. Besides, the GI50 is 11.3 µM in the test on A498 renal and 3.28 µM in the test with SNB-19 CNS. Further, the TGI in the test on MDA-MB-435 came to 20.4 µM; in the test with M14 melanoma it was 29.2 µM; with HOP-92 NSCLC it was 6.54 µM; in the test on SW-620 colon, 14 µM; with NCI/ADR-RES ovarian it was 14.3 µM; in the test on DU-145 prostate, 17.5 µM. Further, the TGI in the test on A498 renal came out at 24.6 µM; with SNB-19 CNS it was 12.7 µM.
`COc1ccc(C(c2cc3c(cc2O)OCO3)N2CCOCC2)cc1OC` (stereo unspecified): the TGI was determined as 23.4 µM in the test with MDA-MB-435; 24.9 µM in the test with M14 melanoma; 31.8 µM in the test with SNB-75 CNS; 32.8 µM in the test with HOP-92 NSCLC; 14.4 µM in the test on SW-620 colon; 20 µM in the test with NCI/ADR-RES ovarian. In addition, the TGI with NCI-H23 lung was found to be 15.9 µM; in the test on DU-145 prostate, 24.4 µM; in the test with SNB-19 CNS, 30.4 µM.
Take `C/C=C/C1=CN2C(=O)c3cc(OC4OC(C)C(NC)C(C)(O)C4O)c(C)c(O)c3N=C[C@@H]2C1` (stereo partly specified): the GI50 in the test with MDA-MB-435 was 0.0819 µM; in the test on M14 melanoma, 0.0589 µM; in the test on SW-620 colon it was 0.0951 µM and < 0.01 µM; in the test with NCI-H23 lung, 0.0784 µM and < 0.01 µM; in the test with DU-145 prostate, 0.0617 µM and < 0.01 µM; in the test on A498 renal, 0.0282 µM and < 0.01 µM. Besides, the TGI with MDA-MB-435 is 0.286 µM; in the test on M14 melanoma, 0.213 µM; with SW-620 colon, 10.2 µM; in the test on NCI/ADR-RES ovarian, 4.71 µM; with DU-145 prostate, 10.7 µM; in the test with A498 renal it was 0.0887 µM and < 0.01 µM.
As to `CCOCCOC[C@H]1CCCN(c2ccnc3sc(C(N)=O)c(N)c23)C1`, the GI50 in the test on MDA-MB-435 is 29.8 µM; with M14 melanoma, 63.1 µM; with SNB-75 CNS, 63.9 µM; in the test with HOP-92 NSCLC it was 44.3 µM; in the test on SW-620 colon it was greater than 100 µM; with NCI-H23 lung it was 10.6 µM. The figures for the GI50 in the test on DU-145 prostate, in the test with A498 renal and in the test on SNB-19 CNS were 73.1 µM, greater than 100 µM and greater than 100 µM, respectively. Besides, the TGI with MDA-MB-435, in the test on M14 melanoma, in the test with SNB-75 CNS, with HOP-92 NSCLC, in the test on SW-620 colon and in the test with NCI-H23 lung was greater than 100 µM throughout. The TGI with DU-145 prostate, with A498 renal and in the test on SNB-19 CNS was greater than 100 µM in each case.
As for `CC(CN)[C@@H]1CC[C@]2(CO)CC[C@]3(C)[C@H](CC[C@@H]4[C@@]5(C)CCC(N)C(C)(C)[C@@H]5CC[C@]43C)[C@@H]12` (stereo partly specified), the GI50 in the test on MDA-MB-435 is 1.73 µM; in the test on M14 melanoma, 1.9 µM; with SNB-75 CNS, 1.41 µM; with HOP-92 NSCLC, 1.45 µM; in the test on SW-620 colon it was 1.8 µM; with NCI-H23 lung it was 1.85 µM. Also, the figures for the GI50 in the test on DU-145 prostate, in the test with A498 renal and in the test on SNB-19 CNS were 1.8 µM, 1.84 µM and 1.79 µM, respectively. Moreover, the TGI was determined as 3.26 µM with MDA-MB-435; 3.76 µM with M14 melanoma; 2.82 µM in the test with SNB-75 CNS; 3.07 µM in the test with HOP-92 NSCLC; 3.43 µM with SW-620 colon; 3.7 µM in the test on NCI-H23 lung. For the same compound, the TGI in the test with DU-145 prostate was determined as 3.3 µM; in the test on A498 renal, 3.31 µM; with SNB-19 CNS, 3.29 µM.
Take `COc1ccc(C2CC(=O)c3c(O)c(OC)c(OC)c(OC)c3O2)cc1O` (stereo unspecified): the GI50 with M14 melanoma was 0.0515 µM; with SNB-75 CNS, 0.0358 µM; in the test on HOP-92 NSCLC, 0.518 µM; in the test on SW-620 colon it was 0.0418 µM; with NCI/ADR-RES ovarian, 0.0616 µM; in the test with NCI-H23 lung it was 0.547 µM. The results for the GI50 in the test with DU-145 prostate, with A498 renal and in the test on SNB-19 CNS were 0.225 µM, 2.34 µM and 0.0833 µM, respectively. Also, the TGI was greater than 100 µM in the test on M14 melanoma; greater than 100 µM with SNB-75 CNS; 82.4 µM in the test on HOP-92 NSCLC; greater than 100 µM in the test on SW-620 colon; greater than 100 µM with NCI/ADR-RES ovarian; greater than 100 µM with NCI-H23 lung. For the same compound, the TGI is greater than 100 µM in the test with DU-145 prostate, 33.2 µM in the test on A498 renal and greater than 100 µM in the test on SNB-19 CNS.
On to `CCOC(=O)N1C=CC(=C2C(=C3C=CN(C(=O)OCC)C=C3)C(=C3C=CN(C(=O)OCC)C=C3)C2=C2C=CN(C(=O)OCC)C=C2)C=C1`, for which the TGI with MDA-MB-435 is 98.8 µM; in the test on M14 melanoma, greater than 100 µM; in the test with SNB-75 CNS, greater than 100 µM; with HOP-92 NSCLC it was 33.9 µM; in the test with SW-620 colon it was greater than 100 µM; with NCI/ADR-RES ovarian it was greater than 100 µM. Also, the TGI in the test with NCI-H23 lung, with DU-145 prostate and with SNB-19 CNS was greater than 100 µM in each case.
Take `FC(F)(F)c1nc(-c2ccccc2)oc1Sc1oc(-c2ccccc2)nc1C(F)(F)F`: the TGI in the test on M14 melanoma was greater than 100 µM; in the test on SNB-75 CNS it was greater than 100 µM; in the test with HOP-92 NSCLC, 94.6 µM; with SW-620 colon, greater than 100 µM; in the test with NCI-H23 lung, greater than 100 µM; with A498 renal, greater than 100 µM. Further, the TGI with SNB-19 CNS is greater than 100 µM.
